Assay results reported in patent publication US20030186410A1, “Novel (r)-2-hydroxy-3-phenylpropionate (d-phenyllactate) dehydrogenase and gene encoding the same” (priority 2000, published 2003).

Tested on: D-PLDH
Experiment: Relative enzyme activity of partially purified enzyme solution with different reaction substrates
Type: biochemical, Mycelia sterilia
Conditions: partially purified enzyme solution (Mono Q10/10) from pDPLDH-1-carrying E. coli, compound used as reaction substrate
Procedure: A 150 μl portion of buffer solution A containing 250 μM NADPH and 250 μM phenylpyruvic acid was dispensed into wells of a 96-well microtiter plate, 50 μl each of the crude enzyme solution was added and mixed immediately using a pipette, and a change in absorption at 340 nm at 26° C. was measured. The measurement was carried out using an Absorption Microassay Reader BioLumin 960 (Molecular Dynamics) to trace a decrease in absorption with time after the start of the reaction. The amount of the enzyme which oxidized 1 μmol of NADPH per minute was set to be one unit. Results are shown in Table 1 as the enzyme activity of the crude enzyme solution.
Further, the obtained crude enzyme solution was processed using Mono Q10/10 under the conditions described in Example 1-2 to prepare a partially purified enzyme solution. This partially purified enzyme solution was applied onto a 96-well microtiter with different concentrations of the substrate, phenylpyruvic acid, to measure enzyme activity. Further, enzyme activity was also measured with an alternative substrate, pyruvic acid, in place of phenylpyruvic acid. […]

Structure (SMILES)	Relative reaction rate (rate with phenylypyruvic acid = 100)
O=C(O)C(=O)Cc1ccccc1 [Phenylpyruvic acid, 2-oxo-3-phenylpropionic acid]	100
CC(=O)C(=O)O [Pyruvic acid]	10
